# In patent US6548540B2, “Method of treating cancer using dithiocarbamate derivatives” (Charlotte-Mecklenburg Hospital Authority, priority 1998, dated 2003):
# Experiments:
# Assay type in all cases: cell-based, human
# M1619 melanoma cells [1] = experiment: DNA cell cycle by flow cytometry; settings: 24 hours
# Protocol: To study the effect of disulfiram on the DNA cell cycle, cells were grown to confluence in 25 cm^2 plastic flasks and treated for with 10% FBS plus DMSO vehicle, FBS and DMSO vehicle plus 250 μg/ml ceruloplasmin as a source of copper, FBS plus 5 μM disulfiram or FBS plus 5 μM disulfiram and 250 μg/ml ceruloplasmin. After 24 hours cells were trypsinized, washed twice in cold DPBS with 1 mM EDTA and 1% BSA, fixed 30 minute in ice-cold 70% ethanol, and stained by incubation for 30 minutes at 37° C. in a 10 μg/ml solution of propidium iodide in DPBS and 1 mg/ml RNase A. DNA cell cycle measurements were made using a FACStar^PLUS Flow Cytometer (Becton-Dickenson, San Jose, Calif.).
# The antiproliferative activity of dithiocarbamate disulfides depends on complexation with copper. PDTC induces apoptosis in normal thymocytes that is mediated by complexation of copper from fetal bovine serum in the medium and subsequent facilitation of copper transport into cells. […] Unsynchronized M1619 melanoma cells were grown in the presence of DMSO vehicle (A), 5 μM disulfiram (B), or 5 μM disulfiram plus 250 μg/ml ceruloplasmin (Cerulo) as a source of copper (C). Twenty-four hours later, cells were harvested and flow cytometric analysis was performed. The proportion of nuclei in each phase of the cell cycle (brackets) was determined with MODFIT DNA analysis software. Disulfiram increases the portion of cells in S phase. The combination of disulfiram and ceruloplasmin further increases the number of cells in S phase, prevents progression into the G2-M cell cycle and induces apoptosis.
# tumor cell lines = experiment: Proliferation of tumor cell lines with redox, NO synthase or cyclooxygenase agents (cell line not given)
# Protocol: Potential redox effects of disulfiram were studied in three sets of experiments. The importance of cellular glutathione (GSH) in mediating or modulating thiocarbamate toxicity was studied by measuring levels of intracellular GSH after treatment with disulfiram. […] Also, to assess whether a nonspecific antioxidant effect of disulfiram or PDTC might account for cellular growth inhibition, we studied the effect of the potent lipophilic antioxidant probucol (1.0 to 1,000 μM) on proliferation of malignant cell lines. […] To explore the role of cyclooxygenase inhibition on tumor cell growth, cells were cultured with or without disulfiram in the presence or absence of the cyclooxygenase-1 (COX1) and cyclooxygenase-2 (COX2) inhibitors indomethacin (5μg/ml) or sodium salicylate (1 mM). To probe whether disulfiram might be inducing growth retardation by interruption or stimulation of NO production, proliferation was studied with and without disulfiram in the presence and absence of the nitric oxide […] inhibitor Nω-nitro-L-arginine added to growth medium (100 μM). […] J. Respir. Cell Mol. Biol. 7:574-581 (1992); […], et al. R., supra; S. S. Brar, et al., “Requirement for reactive oxygen species in serum-induced and platelet-derived growth factor-induced growth of airway smooth muscle,” J. Biol. Chem. 274:20017-20026 (1999)). This assay empirically distinguishes between dead and living cells. For proliferation studies, cells were seeded into 24-well uncoated plastic plates (Costar) at 50,000 cells per well and cultured with respective media and mitogens. […] MTT-containing medium was removed, 0.5 ml dimethylsulfoxide (DMSO) was added to each well, and the absorbance of the solubilized purple formazan dye was measured at 540 nm. A total of 4-6 wells were studied at each treatment condition.
# NF-κB = experiment: EMSA of treated cells, NF-κB DNA binding; settings: disulfiram plus copper; 12 hours; data not shown
# Protocol: Nuclear protein was isolated and DNA binding reactions were performed as previously described in detail (See, […], et al., “Dehydroepiandrosterone and analogs inhibit DNA binding of AP-1 and airway smooth muscle proliferation,” J. Pharmacol. Exper. Ther. 285:[…] (1998); T. Kennedy, et al., “Copper-dependent inflammation and nuclear factor-κB activation by particulate air pollution,” Am. J. Respir. Cell Mol. Biol. 19:366-378 (1998)). Monolayers were washed twice in cold DPBS and equilibrated 10 minutes on ice with 0.7 ml cold cytoplasmic extraction buffer, CEB (10 mM Tris, pH 7.9, 60 mM KCl, 1 mM EDTA, 1 mM DTT) with protease inhibitors, PI (1 mM Pefabloc, 50 μg/ml antipain, 1 μg/ml leupeptin, 1 μg/ml pepstatin, 40 μg/ml bestatin, 3 μg/ml E-64 and 100 μg/ml chymostatin). The detergent Nonidet P-40 (NP-40) was added to a final concentration of 0.1% and cells were dislodged with a cell scraper. Nuclei were pelleted by centrifugation and washed with CEB/PI. […] Competition experiments were performed with 10×unlabeled wild-type oligonucleotide sequences for CRE or […] and 3'-[NT]5'), added before labeled probe. Supershift experiments were performed by incubating the binding reaction with 1 μg of supershifting antibody prior to electrophoresis. […] Gels were dried and analyzed by autoradiography at -80° C. using an image intensifier screen. […]
# M1619 melanoma cells [2] = experiment: Apoptosis by TdT 3'-OH fluorescein end-labeling of DNA fragments; settings: 5 μM disulfiram; 15 hours
# Protocol: To determine whether disulfiram induced apoptosis, cells grown to confluence on 35 mm Petri dishes or on glass slides were treated with disulfiram or DMSO as vehicle. Apoptosis was studied by terminal deoxynucleotidyl transferase (TdT) dependent 3′-OH fluorescein end-labeling of DNA fragments, using a Fluorescein-FragEL™ DNA fragmentation detection kit (Oncogene Research Products, Cambridge, Mass.). Apoptosis was also studied by visually assessing endonuclease dependent DNA fragmentation on ethidium bromide-stained agarose gels.
# In FIG. 5A, M1619 melanoma cells treated with DMSO vehicle. In FIG. 5B, M1619 melanoma cells treated with 5 μM disulfiram. […] Cells were grown to confluence on 35 mm Petri dishes or on glass slides and treated for 15 hours with disulfiram or DMSO as vehicle. Apoptosis was studied by terminal deoxynucleotidyl transferase (TdT) dependent 3′-OH fluorescein end-labeling of DNA fragments, using a Fluorescein-FragEL™ DNA fragmentation detection kit (Oncogene Research Products, Cambridge, Mass.).
# [3] = 5 μM disulfiram plus 250 μg/ml ceruloplasmin
compound,measurement,setting,value
"CCN(CC)C(=S)SSC(=S)N(CC)CC [Disulfiram, tetraethylthiuram disulfide]",apoptotic cells,M1619 melanoma cells [1]; [3],6%
same,cells in G2-M,M1619 melanoma cells [1]; [3],none
same,cells in S phase,M1619 melanoma cells [1]; [3],Over two-thirds
same,cell cycle distribution,M1619 melanoma cells [1]; 5 μM disulfiram,increases the portion in S phase
same,inhibition of growth,tumor cell lines; disulfiram alone,36.8±4.0%
same,inhibition of growth,tumor cell lines; disulfiram plus LNAME,26.7±3.1%
same,DNA binding of NF-κB,NF-κB,inhibited
same,3'-OH fluorescein end-labeling of DNA fragments (apoptosis),M1619 melanoma cells [2],markedly increases
